Ends that are not written are not given here.
Experiments:
[1] = tested on: E. coli 1057 R2 (rpoS^Q3stop, macB^N470D); conditions: MHB + 0.9% NaCl
Protocol: Minimum inhibitory concentrations (MIC) were determined by broth microdilution assay based on Clinical and Laboratory Standards Institute (CLSI) guidelines using BSA in the growth medium to minimize AMP nonspecific adsorption. Bacterial test cultures were grown in the Mueller-Hinton broth (MHB, Sigma) at 37 °C to mid-log phase and then diluted with the 2× MH medium supplemented with 1.8% NaCl (or without salt) so that to reach a final cell concentration of 10^6 CFU/mL. 50 µL of the obtained bacterial suspension were added to aliquots of 50 µL of the peptide solutions serially diluted with sterilized 0.1% bovine serum albumin (BSA) in 96-well flat-bottom polystyrene microplates (Eppendorf #0030730011). […] To verify MIC values, the respiratory activity of the bacteria was determined. Briefly, 5 µL of 0.5 mg/mL resazurin (Sigma) was added to the wells after 24 h (or after 48 h for M. smegmatis) of incubation, and the plate was incubated for additional 3 h. In some cases, MICs were determined in the Lysogeny Broth (LB) or Middlebrook 7H9 medium. The reduction of resazurin to resorufin was recorded. […] The results were expressed as the median values determined based on at least three independent experiments performed in triplicate.
Resistance induction experiments were performed using the previously described method. This approach allows for monitoring MIC values after each transfer. Briefly, on the first day, the overnight culture of the wild-type bacteria was diluted with the 2× MHB supplemented with 1.8% NaCl (or without salt) to reach a final cell concentration of 10^6 CFU/mL. 50 µL of the obtained bacterial suspension were added to aliquots of 50 µL of the peptide solutions serially diluted with the sterilized 0.1% BSA in 96-well flat-bottom polystyrene microplates. After incubation for 20 ± 2 h at 37 °C and 950 rpm, MICs were determined as described above. For each subsequent daily transfer, 2–4 μL of the inoculum taken from the first well containing a sub-inhibitory drug concentration was diluted with 2 mL of the fresh 2× MHB supplemented with 1.8% NaCl (or without salt). […] Multiple repeated passages in the presence of antimicrobial agents were performed for each bacterial strain during the experiment. Bacteria that grew at the highest concentrations of AMPs on the final day were passaged further 3 times on drug-free agar plates before determining the final MIC value.

[2] = tested on: E. coli ATCC 25922; format: cell-based, Escherichia coli; conditions: ATCC 25922, 24 h
Protocol: (§1) The reduction of resazurin to resorufin was recorded.

[3] = tested on: E. cloacae XDR CI 4172; format: cell-based, Enterobacter cloacae; conditions: XDR CI 4172, 24 h
Protocol: as §1

[4] = tested on: S. aureus ATCC 29213; format: cell-based, Staphylococcus aureus; conditions: ATCC 29213, 24 h
Protocol: as §1

[5] = tested on: human red blood cells (hRBC); assay: Hemolysis (hemoglobin release assay); format: cell-based; conditions: mean
Protocol: (§2) Hemolytic activity of the peptides was tested against the fresh suspension of human red blood cells (hRBC) using the hemoglobin release assay as described previously. Two experiments were performed with the hRBC from blood samples collected from healthy donors by certified medical personnel upon informed written consent. All procedures were approved by the Ethics Committee of the Institute of Experimental Medicine (protocol 1/20 of 2/27/2020) and comply with the ethical principles of the Declaration of Helsinki. The quantitative data were represented as average means with standard deviations. The colorimetric 3-(4,5-dimethylthiazol-2-yl)-2,5-diphenyltetrazolium bromide (MTT) dye reduction assay was used to determine cytotoxicity of the peptides against human keratinocyte cell line (HaCaT) and transformed human embryonic kidney cells (HEK293T). Both cell lines were purchased from American Type Culture Collection (ATCC). 10^4 cells per well in Dulbecco’s modified Eagle’s medium (DMEM/F12) supplemented with 10% fetal bovine serum (FBS, Invitrogen) were placed into 96-well plates and then cultured in the CO2-incubator (5% CO2, 37 °C). After the media were removed, the peptides were dissolved in 100 µL of the same medium and added to cell cultures at different final concentrations. 20 h later, 20 μL of MTT (5 mg/mL, Sigma) was added to each well, and the plates were incubated for 4 h at 37 °C. Then, the media were discarded and 100 µL DMSO-isopropanol mixture at a ratio of 1:1 (v/v) was added to each well to dissolve the crystallized formazan. The absorbance at 570 nm was measured by a microplate reader AF2200 (Eppendorf). An optical density in the wells containing cells cultured without the peptides was assumed to represent 100% cell viability. Two independent experiments were performed for each peptide.

[6] = tested on: HEK293T (transformed embryonic kidney cells); assay: MTT cytotoxicity; format: cell-based, human; conditions: mean
Protocol: as §2

[7] = tested on: HaCaT (keratinocytes); assay: MTT cytotoxicity; format: cell-based, human
Protocol: as §2

[8] = tested on: Mycobacterium smegmatis mc(2)155; format: cell-based; conditions: Mycobacterium mc(2)155, 24 h
Protocol: as §1

[9] = tested on: panel of tested strains; conditions: over all tested strains of Fig. 6a
Protocol: Minimum inhibitory concentrations (MIC) were determined by broth microdilution assay based on Clinical and Laboratory Standards Institute (CLSI) guidelines using BSA in the growth medium to minimize AMP nonspecific adsorption[49]. Bacterial test cultures were grown in the Mueller-Hinton broth (MHB, Sigma) at 37 °C to mid-log phase and then diluted with the 2× MH medium supplemented with 1.8% NaCl (or without salt) so that to reach a final cell concentration of 10^6 CFU/mL. 50 µL of the obtained bacterial suspension were added to aliquots of 50 µL of the peptide solutions serially diluted with sterilized 0.1% bovine serum albumin (BSA) in 96-well flat-bottom polystyrene microplates (Eppendorf #0030730011). […] To verify MIC values, the respiratory activity of the bacteria was determined. Briefly, 5 µL of 0.5 mg/mL resazurin (Sigma) was added to the wells after 24 h (or after 48 h for M. smegmatis) of incubation, and the plate was incubated for additional 3 h. In some cases, MICs were determined in the Lysogeny Broth (LB) or Middlebrook 7H9 medium. The reduction of resazurin to resorufin was recorded. […] The results were expressed as the median values determined based on at least three independent experiments performed in triplicate.

[10] = tested on: mycobacteria; conditions: cited from earlier work
Description: To estimate the therapeutic potential of rumicidins as candidate compounds for combating bacterial infections, we assessed their antimicrobial activity against a wide panel of strains. As expected, antibacterial activities of rumicidins, like those of known PrAMPs, decreased in most cases in the presence of salt, which might inhibit the adsorption of the peptides to the bacterial surface. Besides, their activities against Gram-negative bacteria deficient in SbmA protein (Pseudomonas aeruginosa and Proteus mirabilis) were also less pronounced. Amon ...

[11] = tested on: E. coli BL21 (DE3) Star cell extract; assay: Cell-free protein synthesis (coupled transcription/translation) of EGFP; format: biochemical, Escherichia coli; conditions: minimum concentration that provides >90% inhibition of the EGFP synthesis in the CFPS system
Protocol: To investigate the effects of AMPs and antibiotics on the coupled transcription/translation process, the test compounds were added to a cell-free protein synthesis (CFPS) reaction mix with a plasmid encoding enhanced green fluorescent protein (EGFP) variant (F64L, S65T, Q80R, F99S, M153T, and V163A) under control of the T7 promoter. The cell lysate was prepared using the E. coli BL21 Star (DE3) overexpressed T7 RNA polymerase as described previously. The reaction mix consisted of the following components: 1.2 mM ATP, 0.8 mM UTP, 0.8 mM GTP, 0.8 mM CTP, 2 mM of each of 20 proteinogenic amino acids, 1.5 mM spermidine, 1 mM putrescine dihydrochloride, 0.06647 mM calcium folinate, […] tRNA from the E. coli MRE 600 strain, 0.33 mM NAD, 120 mM HEPES-KOH (pH 8.0), 10 mM ammonium glutamate, 175 mM potassium glutamate, 60 mM glucose, 15 mM magnesium glutamate, 2% PEG 8000, 25% E. coli BL21 Star (DE3) cell lysate, 1 ng/ml plasmid DNA. The reaction volume was 50 µL. The peptides were dissolved in PBS with the addition of 0.1% BSA. Erythromycin was used in the positive control reactions. The fluorescence of the sample without inhibitor was set as the 100% value. The reaction proceeded for 2 h in 96-well v-bottom black polystyrene microplates (Eppendorf #0030601904) in a plate shaker (30 °C, 1000 rpm). The fluorescence of the synthesized EGFP was measured with the microplate reader AF2200 (λEx = 488 nm, λEm = 510 nm; Eppendorf). The experimental data were obtained from at least two independent experiments performed in triplicate. Non-linear regression curves were generated using GraphPad Prism v.8.0.1 (GraphPad Software Inc.).

[12] = tested on: ribosome on ermCL / RST1 mRNA; assay: Toe-printing (primer-extension inhibition) in PURExpress system; format: biochemical; conditions: 5 µM
Protocol: Toe-print analysis was performed as previously described[20] on two matrices: ErmCL and RST1. Briefly, the PURExpress system (NEB) was used for transcription and subsequent translation, then a reverse transcription reaction was performed. The ErmCL template was generated by PCR with two partially self-complementary oligonucleotides (Erm-F and Erm-R, Supplementary Table 8). […] oligonucleotide was used for reverse transcription. RST1 template was prepared as previously described[58] using PCR primers (T7fwd and NV1). Concentrations of tested compounds in toe-print were 0.5, 5, or 50 μM. 1% (v/v) DMSO water solution was used as a negative control sample. Two independent experiments were performed using both matrices, and the observed effects were the same.

[13] = tested on: E. coli BW25113; assay: MIC broth microdilution; format: cell-based, Escherichia coli
Protocol: as §1

[14] = tested on: E. coli ML-35p; assay: Cytoplasmic membrane permeability assay (ONPG); format: cell-based, Escherichia coli; conditions: 4 h exposure, 10 mM NaPB pH 7.4 + 0.9% NaCl, melittin = 100%, mean of two experiments
Protocol: To examine the ability of the peptides to affect the barrier function of outer and inner membranes of Gram-negative bacteria, we slightly modified the previously described procedure[22] with the use of the E. coli ML-35p strain constitutively expressing cytoplasmic β-galactosidase but lacking lactose permease, and also containing β-lactamase in the periplasmic space. The state of the E. coli ML-35p outer and cytoplasmic membranes was assessed based on their permeability to chromogenic markers nitrocefin (Calbiochem) and o-nitrophenyl-β-D-galactopyranoside (ONPG, AppliChem) which are the β-lactamase and β-galactosidase substrates, respectively. The cells were incubated in the trypticase soy broth (TSB) for 16 h at 37 °C, washed three times with phosphate-buffered saline (PBS, pH 7.4) to remove residual growth media, adjusted to the concentration of 2.5 × 10^8 CFU/mL, and stored on ice until used. Experiments were performed in 10 mM sodium phosphate buffer (NaPB, pH 7.4) with or without the addition of 0.9% NaCl and/or a mixture of divalent cations (0.5 mM CaCl2 and 0.5 mM MgSO4). The final concentration of E. coli ML-35p cells was of 2.5 × 10^7 CFU/mL. The concentrations of ONPG and nitrocefin were of 2.5 mM and 20 µM, respectively. Peptide samples were placed in the wells of a 96-well flat-bottom polystyrene microplate, and optical density of the solution enhanced due to an appearance of the hydrolyzed nitrocefin or ONPG and was measured at 492 and 405 nm, respectively, using a microplate reader AF2200. The final volume in each well was 200 µL. Assays were performed at 37 °C under stirring at 500 rpm. Control experiments were performed under the same conditions without adding a peptide. Two independent experiments were performed, and the curve pattern was the same.

[15] = tested on: P. aeruginosa ATCC 27853; format: cell-based, Pseudomonas aeruginosa; conditions: ATCC 27853, 24 h
Protocol: as §1

[16] = tested on: M. luteus B-1314; format: cell-based, Micrococcus luteus; conditions: B-1314, 24 h
Protocol: as §1

[17] = tested on: Proteus mirabilis XDR CI 3423; format: cell-based; conditions: XDR CI 3423, 24 h
Protocol: as §1

RRIRPRPPRLPRPRPRPLPFPR [Bac7[1-22]]
MIC [1]: 32 µM | MIC E. coli ATCC 25922 [2]: 1 µM | MIC E. cloacae XDR CI 4172 [3]: 1 µM | MIC S. aureus ATCC 29213 [4]: > 32 µM | Hemolysis ([5]; 0.25 µM): 0.017% | Hemolysis ([5]; 0.5 µM): 0.093% | Hemolysis ([5]; 1 µM): 0.134% | Hemolysis ([5]; 2 µM): 0.206% | Hemolysis ([5]; 4 µM): 0.371% | Hemolysis ([5]; 8 µM): 0.43% | Hemolysis ([5]; 16 µM): 0.525% | Hemolysis ([5]; 32 µM): 0.835% | Hemolysis ([5]; 64 µM): 1.043% | HEK293T cell viability ([6]; 1 µM): 111.372% | HEK293T cell viability ([6]; 2 µM): 111.629% | HEK293T cell viability ([6]; 4 µM): 112.981% | HEK293T cell viability ([6]; 8 µM): 107.36% | HEK293T cell viability ([6]; 16 µM): 102.824% | HEK293T cell viability ([6]; 32 µM): 100.41% | HEK293T cell viability ([6]; 64 µM): 98.194% | HaCaT cell viability ([7]; 1 µM): 99.202% | HaCaT cell viability ([7]; 2 µM): 105.318% | HaCaT cell viability ([7]; 4 µM): 103.256% | HaCaT cell viability ([7]; 8 µM): 103.504% | HaCaT cell viability ([7]; 16 µM): 102.717% | HaCaT cell viability ([7]; 32 µM): 102.854% | HaCaT cell viability ([7]; 64 µM): 101.039%

RIKIPRPPKPRRPHRPRPGRRRPWFPPRFP [Rumicidin-3]
MIC [1]: 4 µM | MIC S. aureus ATCC 29213 [4]: > 32 µM | Minimum inhibitory concentration (MIC) [8]: 4 µM | median MIC [9]: about 2 µM

PR-39
MIC [10]: ~ 10 µM

KPRPPHRPRPRPRPWFPPRFP [Rum-1[9-29]]
Protein synthesis inhibition [11]: 4 µM | toe-print result [12]: strong AUG toe-print signal comparable to that of the wild-type peptide | Minimum inhibitory concentration MHB + 0.9% NaCl ([13]; Mueller-Hinton broth + 0.9% NaCl, 24 h 37 °C, median of ≥3 experiments): 32 µM | Minimum inhibitory concentration MHB ([13]; Mueller-Hinton broth without salt, 24 h 37 °C, median of ≥3 experiments): 8 µM | fold change of MIC vs wild-type rumicidin-1 ([13]; N-terminal shortening): ≥ 4 fold | permeabilized cells (ONPG hydrolysis, % of melittin) ([14]; 4 µM): 0.080% | permeabilized cells (ONPG hydrolysis, % of melittin) ([14]; 16 µM): 1.213% | permeabilized cells (ONPG hydrolysis, % of melittin) ([14]; 64 µM): 3.493%

RRRPRPPYLPRPRPPPFFPPRL [PR-39[1-22]]
MIC [1]: 32 µM | MIC P. aeruginosa ATCC 27853 [15]: > 32 µM | MIC M. luteus B-1314 [16]: > 32 µM | MIC S. aureus ATCC 29213 [4]: > 32 µM | MICs depending on the test medium [8]: 8 to 16 µM | Minimum inhibitory concentration (MIC) [8]: 8 µM | MIC Proteus mirabilis XDR CI 3423 [17]: > 32 µM
